Laboratory results: patent US10954214B2 (Janssen Pharmaceutica NV, priority 2016, dated 2021)

How the values were obtained:
[1] = target: full-length MALT1 protein (Strep-MALT1(1-824)-His) (Homo sapiens (Human), UniProt Q9UDY8); experiment: MALT1 Biochemical Protease Assay (Ac-LRSR-AMC substrate); conditions: 10 nM FL MALT1, 200 μM Ac-LRSR-AMC, 4 h at RT; read-out: MALT1_Biochemical activity (Ac-LRSR-amc) IC50
How it was run: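 Full-length MALT1 pre-incubated with compounds (30 μM to 0.5 nM, 11 threefold steps) for 50 min at RT. After Ac-LRSR-AMC was added, the reaction ran 4 h at RT and AMC fluorescence was read. IC50 and Hill slope from curve fitting against no-enzyme and no-compound controls.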

[2] = system: IL6 secretion by TMD8 ABC-DLBCL cells; experiment: Human IL6 Mesoscale assay (TMD-8); type: cell-based; conditions: Homo sapiens, TMD8; TMD-8 cells, 24 h
How it was run: (§1)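 Read-out: MSD electrochemiluminescence of IL6/IL10 in supernatants. Cells (100,000/well, no beta-mercaptoethanol) were exposed to compounds at 15 μM down to 58.6 nM, 1:2 dilutions, for 24 h at 37° C, 5% CO2. Normalised between DMSO (high) and RN486 (low) controls.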

[3] = system: IL10 secretion by TMD8 ABC-DLBCL cells; experiment: Human IL10 Mesoscale assay (TMD-8); type: cell-based; conditions: Homo sapiens, TMD8; TMD-8 cells, 24 h
How it was run: as §1

OCI-Ly3 cells = experiment: 4-day proliferation assay, OCI-Ly3; type: cell-based, human; conditions: Homo sapiens, 96 h, 4 days incubation, CellTiterGLO, read-out: Anti-proliferation: OCI-LY-3 IC50
Experimental: (§2) To assess anti-proliferative effects, MALT1 inhibitor test compounds were tested in 4-day proliferation assays using three different DLBCL cell lines.
(§3) Cells should be kept between 0.5-2.5 million cells per mL during culturing and cells should be supplemented every 2-3 days with fresh 50 μM beta-mercaptoenthanol. No beta-mercaptoethanol is used during the proliferation assay. OCI-Ly7 cells were propagated in IMDM (ThermoFisher) supplemented with 10% fetal bovine serum (HyClone), 2 mM L-glutamine (Sigma Aldrich) and 50 μg/mL Gentamycin. Cell passage numbers should not exceed 30 (for OCI-Ly3 cells with passage number lower than 10 were used).
(§4) 10,000 TMD8, 10,000 OCI-Ly3 or 2,000 OCI-Ly7 cells were seeded in 100 μL media per well and incubated for 4 days at 37° C. and 5% CO2. Cell plating numbers were chosen based on growth curves to ensure linear cell growth. After 4 days of incubation 50 μL CellTiterGLO reagent (Promega) were added to each well and luminescence was measured on the Envision after 10 min of incubation at room temperature.
(§5) LC=median of the low control values
(§6) An estimate of the slope of the plot in terms of the Hill coefficient was also obtained.

TMD8 cells = experiment: 4-day proliferation assay, TMD8; type: cell-based; conditions: Homo sapiens, 96 h, 4 days incubation, CellTiterGLO, read-out: Anti-proliferation: TMD-8 IC50
Experimental: as §2, §3, §4, §5, §6

full-length MALT1 protein (Strep-MALT1(1-824)-His), sequence (Q9UDY8 whole entry): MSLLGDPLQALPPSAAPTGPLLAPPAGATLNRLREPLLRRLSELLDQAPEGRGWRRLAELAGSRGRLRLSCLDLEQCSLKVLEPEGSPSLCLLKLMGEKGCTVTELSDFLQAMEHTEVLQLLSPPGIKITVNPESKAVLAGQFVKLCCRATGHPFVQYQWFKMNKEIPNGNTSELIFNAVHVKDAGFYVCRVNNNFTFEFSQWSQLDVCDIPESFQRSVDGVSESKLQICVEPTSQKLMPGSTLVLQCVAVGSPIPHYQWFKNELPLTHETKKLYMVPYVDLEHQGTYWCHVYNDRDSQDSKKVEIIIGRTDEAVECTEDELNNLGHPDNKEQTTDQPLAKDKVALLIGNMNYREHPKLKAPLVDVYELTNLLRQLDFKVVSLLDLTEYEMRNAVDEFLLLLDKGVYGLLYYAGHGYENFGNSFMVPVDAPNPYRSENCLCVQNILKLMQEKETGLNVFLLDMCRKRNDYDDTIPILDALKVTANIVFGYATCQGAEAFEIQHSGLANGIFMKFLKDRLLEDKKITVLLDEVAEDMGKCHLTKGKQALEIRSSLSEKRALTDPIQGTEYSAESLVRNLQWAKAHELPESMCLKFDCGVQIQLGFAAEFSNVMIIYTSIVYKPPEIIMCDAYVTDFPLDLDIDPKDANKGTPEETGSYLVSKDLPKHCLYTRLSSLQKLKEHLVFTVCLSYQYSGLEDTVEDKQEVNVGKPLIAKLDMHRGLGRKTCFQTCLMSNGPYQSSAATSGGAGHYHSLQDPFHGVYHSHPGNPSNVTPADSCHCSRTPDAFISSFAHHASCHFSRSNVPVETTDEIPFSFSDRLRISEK

Work on `O=C(Nc1cnc(-n2nccn2)c(F)c1)c1cnn(-c2cncc3ccccc23)c1C(F)(F)F` [Cpd 61, N-(5-fluoro-6-(2H-1,2,3-triazol-2-yl)pyridin-3-yl)-1-(isoquinolin-4-yl)-5-(trifluoromethyl)-1H-pyrazole-4-carboxamide] yielded an IC50 [1] of 102 nM, an IC50 [2] of 263 nM and an IC50 [3] of 224 nM. For the same compound, the IC50 (OCI-Ly3 cells) was 1260 nM and the IC50 (TMD8 cells) was ~14100 nM.

`N#Cc1cc(NC(=O)c2cnn(-c3cncc4ccccc34)c2C(F)(F)F)ccc1-n1ccnn1` [Cpd 62, N-(3-cyano-4-(1H-1,2,3-triazol-1-yl)phenyl)-1-(isoquinolin-4-yl)-5-(trifluoromethyl)-1H-pyrazole-4-carboxamide] was tested, and the IC50 [1] was 59 nM, the IC50 [2] was 112 nM and the IC50 [3] was 85 nM. It also gave an IC50 (OCI-Ly3 cells) of 230 nM and an IC50 (TMD8 cells) of 10000 nM.

`Cc1cnc2cccc(-n3ncc(C(=O)Nc4cnc(-n5nccn5)c(Cl)c4)c3C(F)(F)F)c2c1` [Cpd 65, N-(5-Chloro-6-(2H-1,2,3-triazol-2-yl)pyridin-3-yl)-1-(3-methylquinolin-5-yl)-5-(trifluoromethyl)-1H-pyrazole-4-carboxamide] showed an IC50 [1] of 60 nM, an IC50 [2] of 282 nM and an IC50 [3] of 120 nM. The IC50 (OCI-Ly3 cells) was 260 nM and the IC50 (TMD8 cells) was 10200 nM.

`Cc1ncc(-n2ncc(C(=O)Nc3cnc(-n4nccn4)c(Cl)c3)c2C(F)(F)F)c2ccccc12` [Cpd 66, N-(5-chloro-6-(2H-1,2,3-triazol-2-yl)pyridin-3-yl)-1-(1-methylisoquinolin-4-yl)-5-(trifluoromethyl)-1H-pyrazole-4-carboxamide] was tested, and the IC50 [1] was 69 nM, the IC50 [2] was 331 nM and the IC50 [3] was 132 nM. For the same compound, the IC50 (OCI-Ly3 cells) was 810 nM and the IC50 (TMD8 cells) was ~8710 nM.

`O=C(Nc1cnc(-n2nccn2)c(Cl)c1)c1cnn(-c2cccc3[nH]ncc23)c1C(F)(F)F` [Cpd 68, N-(5-Chloro-6-(2H-1,2,3-triazol-2-yl)pyridin-3-yl)-1-(1H-indazol-4-yl)-5-(trifluoromethyl)-1H-pyrazole-4-carboxamide] was tested, and the IC50 [1] was 151 nM, the IC50 [2] was 417 nM and the IC50 [3] was 257 nM. For the same compound, the IC50 (OCI-Ly3 cells) was 370 nM and the IC50 (TMD8 cells) was ~19000 nM.

With `O=C(Nc1cnc(-c2nnco2)c(Cl)c1)c1cnn(-c2cncc3ccccc23)c1C(F)(F)F` [Cpd 69, N-(5-Chloro-6-(1,3,4-oxadiazol-2-yl)pyridin-3-yl)-1-(isoquinolin-4-yl)-5-(trifluoromethyl)-1H-pyrazole-4-carboxamide] the IC50 [1] was 60 nM, the IC50 [2] was 58 nM and the IC50 [3] was 63 nM. For the same compound, the IC50 (OCI-Ly3 cells) was 430 nM and the IC50 (TMD8 cells) was ~16200 nM.

`O=C(Nc1cnc(-n2ccnc2)c(Cl)c1)c1cnn(-c2cncc3ccccc23)c1C(F)(F)F` [Cpd 70, N-(5-chloro-6-(1H-imidazol-1-yl)pyridin-3-yl)-1-(isoquinolin-4-yl)-5-(trifluoromethyl)-1H-pyrazole-4-carboxamide] gave an IC50 [1] of 479 nM, an IC50 [2] of 1100 nM and an IC50 [3] of 891 nM. It also gave an IC50 (OCI-Ly3 cells) of ~1350 nM and an IC50 (TMD8 cells) of ~13800 nM.

`NCCCCNC(=O)c1ncc(NC(=O)c2cnn(-c3cncc4ccccc34)c2C(F)(F)F)cc1Cl` [Cpd 72, N-(4-aminobutyl)-3-chloro-5-(1-(isoquinolin-4-yl)-5-(trifluoromethyl)-1H-pyrazole-4-carboxamido)picolinamide] gave an IC50 [1] of 407 nM, an IC50 [2] of 851 nM and an IC50 [3] of 1380 nM. For the same compound, the IC50 (OCI-Ly3 cells) was 1660 nM and the IC50 (TMD8 cells) was > 20000 nM.

Compound `Cc1cc(NC(=O)c2cnn(-c3cncc4ccccc34)c2C(F)(F)F)cc(C(F)(F)F)n1` [Cpd 73, 1-(isoquinolin-4-yl)-N-(2-methyl-6-(trifluoromethyl)pyridin-4-yl)-5-(trifluoromethyl)-1H-pyrazole-4-carboxamide] has an IC50 [1] of 724 nM, an IC50 [2] of 417 nM and an IC50 [3] of 339 nM. For the same compound, the IC50 (OCI-Ly3 cells) was 1950 nM and the IC50 (TMD8 cells) was ~11500 nM.

Compound `COC(=O)c1cc(NC(=O)c2cnn(-c3cncc4ccccc34)c2C(F)(F)F)cc(Cl)n1` [Cpd 74, Methyl 6-chloro-4-(1-(isoquinolin-4-yl)-5-(trifluoromethyl)-1H-pyrazole-4-carboxamido)picolinate] has an IC50 [1] of 372 nM, an IC50 [2] of 1380 nM and an IC50 [3] of 1380 nM. The IC50 (OCI-Ly3 cells) was 2450 nM and the IC50 (TMD8 cells) was > 20000 nM.
